Columns and labels:
WT mice = assay: Survival after LAD ligation-induced myocardial infarction in WT mice; type: in vivo, mouse; settings: treated from two days post-infarction, up to 60 days post-infarction
Protocol: Ligation of LAD in anesthetized mice was carried out using procedures similar to those previously described in the art. Adult WT (BL6) or P2X4R Tg mice 12-14 weeks old of either gender were anesthetized with ketamine (100 mg/kg) and xylazine (5 mg/kg) intraperitoneally. Under a dissecting microscope, mice were placed in a supine position on a heated pad to keep body temperature at 37° C. After endotracheal intubation, the cannula was connected to a small rodent ventilator (Hugo Sachs-Harvard Apparatus, Minivent Type 845, Holliston, Mass.) on room air with a stroke volume of 0.3 ml at a rate of 160 per min. A left intercostals thoracotomy was performed and myocardial infarction was produced by ligating the left anterior descending coronary artery with an 8-0 nylon suture within 2 mm below the edge of left atrium near the origin of the artery. The ligation was deemed successful when the left anterior wall turned pale and the ligation was aimed to induce a 30-40% infarct size. Animals were used according to the approved protocols of the Institutional Review Board at University of Connecticut School of Medicine.
The LAD ligation-mediated ischemic cardiomyopathy was induced in WT mice. (FIG. 26) At two days post-infarction, 15 mice were treated with […] and 19 mice were treated with NS (normal saline as the vehicle control). […]

intact CSQ mouse hearts = assay: Cardiac function in intact CSQ mouse heart preparation
Protocol: Following injection of heparin via tail vein (500 U/kg, iv) and anesthetization with nembutal (125 mg/kg for rats and 150 mg/kg for mice, ip) intraperitoneally, heart with all major vessels and lungs attached were excised. The aorta was then cannulated with a 20-gauge catheter, positioned about 2 mm above the coronary ostia. For the Langendorff method, a water-filled latex balloon (size #3) was inserted into the lumen of the left ventricle via the left atrium. The distal end of the balloon attached catheter was connected to a pressure transducer for measurement of intraventricular pressure and ±dP/dt. The balloon was inflated to a constantly held diastolic pressure of 5-7 mmHg. […]
For the working heart model, a column of KHS buffer produced a constant hydrostatic pressure of 65 mmHg (for rat) or 55 mmHg (for mice). […] Aortic flow was the amount of perfusate exiting the aortic cannula measured in […]. […]
The pressure recordings were channeled from amplifiers which had been pre-calibrated by a transducer simulator/calibrator (Ken Scientific Corp., Litchfield, Conn.). […] Data were analyzed by computer software (WorkBench for Windows+, Kent Scientific Corp) designed for an IBM-compatible computer (Dell). […] Data obtained with and without drug were analyzed by paired t test for possible statistically significant differences. […]

With `Nc1nc(Cl)nc2c1ncn2C1[C@H]2C[C@@]2(COP(=O)(O)O)[C@@H](O)[C@H]1O` (stereo partly drawn) [MRS2339, (1′S,2′R,3′S,4′R,5′S)-4-(6-amino-2-chloro-9H-purin-9-yl)-1-[phosphoryloxymethyl]bicyclo[3.1.0]hexane-2,3-diol] the Post-infarction survival (WT mice) was “greater than 95%” and the “+dP/dt” value (intact CSQ mouse hearts) was “increased”.
